Results taken from paper PMC8011931, “Identification, Structure–Activity Relationship, and Biological Characterization of 2,3,4,5-Tetrahydro-1H-pyrido[4,3-b]indoles as a Novel Class of CFTR Potentiators” (Journal of Medicinal Chemistry, 2020).

Molecular target: F508del-CFTR (Homo sapiens, UniProt P13569, DEL508-508)
Assay: HS-YFP-based assay for CFTR activity on F508del-CFTR FRT cells rescued at 32 °C for 24 h
Type: cell-based
Design: expressed in transfected cells; key to Emax: fold increase in F508del-CFTR rescue relative to hit 3 (normalized)
Settings: for EC50: F508del-CFTR FRT cells rescued at 32 °C for 24 h, plus forskolin; for EC50 / Emax (FRT F508del-CFTR): mean ± SD (n = 3–6), n.a.: not active (up to 20 μM); for Emax: supplementary csv, same data as Tables 1–3; for Emax (FRT F508del-CFTR): normalized for the activity of analogue 3; for fold decrease (drop) in potency with respect to 30: EC50, F508del-CFTR FRT cells
Protocol: The chemical library was screened in duplicate on a Fischer rat thyroid (FRT) cell line, stably coexpressing F508del-CFTR and the halide-sensitive yellow fluorescent protein, HS-YFP.[23],[34],[35] To overcome the F508del trafficking defect, cells were initially incubated for 24 h at 32 °C and then acutely treated (15–30 min) with a single compound (5 μM) in combination with forskolin (10 μM). After stimulation, the F508del-CFTR activity in the plasma membrane was calculated by measuring the rate of fluorescence quenching arising from iodide influx.[34] This activity was compared to that of wells containing forskolin alone (negative control) or forskolin plus VX-770 (1 μM, as a positive control) (Figure 2A). Analysis of screening performance with the Z′ method gave a score of 0.6, which can be considered optimal for this type of assay. The activity scores for each compound were then plotted as an ordered distribution (Figure 2B). All compounds whose average activity calculated from the two rounds of screening was greater than 185% with respect to the negative control (i.e., forskolin alone) were considered as primary hits.
The primary hits were confirmed by testing them at different concentrations, in order to extrapolate the dose–response relationship. First, we focused on the F508del mutant. The compounds were tested in the low micromolar range, in the presence of forskolin (10 μM), on F508del-CFTR FRT cells following rescue of the trafficking defect by low-temperature incubation, as done for the primary screening. The most interesting hits were subsequently tested for their ability to overcome the more severe gating defect of pure class III mutant using FRT cells stably expressing G551D-CFTR (Figure 3B).
The role of the heteroaryl group (A) acylating the position 2 of the tetrahydro-γ-carboline was initially explored by modifying the substituent on the pyrazolyl residue and replacing the pyrazole with other rings, while keeping the 8-methoxy carboline moiety unmodified. The activity of each compound is described in terms of normalized maximal efficacy (Emax), the maximum fold increase in the rescue of F508del-CFTR activity with respect to hit 3, and potency (EC50), the concentration producing half-maximal efficacy.
FRT cells stably expressing mutant F508del-CFTR or G551D-CFTR and the halide-sensitive yellow fluorescent protein (HS-YFP) YFP-H148Q/I152L and CFBE41o-cells stably expressing F508del-CFTR and HS-YFP were generated as previously described.[21],[57] FRT cells were cultured using the Coon’s modification of Ham’s F12 medium, while CFBE41o-cells were cultured in the modified Eagle’s medium. Media were supplemented with 10% fetal calf serum, 2 mM L-glutamine, 100 U/mL of penicillin, and […] of streptomycin. For functional assays of CFTR activity based on the HS-YFP assays, CFBE41o- or FRT cells were plated (50,000 cells/well) on clear-bottom 96-well black microplates (Corning Life Sciences, Acton, MA). The following day, cells were assayed. In the case of FRT cells expressing F508del-CFTR, plates were kept at 32 °C (or treated with correctors at 37 °C where indicated) for an additional 24 h to rescue the mutant trafficking defect, before assays.
Prior assay, cells were washed with phosphate-buffered saline (PBS) containing (in mM) 137 NaCl, 2.7 KCl, 8.1 Na2HPO4, 1.5 KH2PO4, 1 CaCl2, and 0.5 MgCl2. Cells were then incubated for 25 min with 60 μL of PBS plus forskolin (20 μM) and test compounds (at the desired concentration) to stimulate mutant CFTR. Cells were then transferred to microplate readers (FluoStar Optima; BMG Labtech, Offenburg, Germany) for CFTR activity determination. The plate readers were equipped with high-quality excitation (HQ500/20X: 500 ± 10 nm) and emission (HQ535/30M: 535 ± 15 nm) filters for YFP (Chroma Technology). […]

Chain of F508del-CFTR (P13569 with tags, fused parts or gaps DEL508-508): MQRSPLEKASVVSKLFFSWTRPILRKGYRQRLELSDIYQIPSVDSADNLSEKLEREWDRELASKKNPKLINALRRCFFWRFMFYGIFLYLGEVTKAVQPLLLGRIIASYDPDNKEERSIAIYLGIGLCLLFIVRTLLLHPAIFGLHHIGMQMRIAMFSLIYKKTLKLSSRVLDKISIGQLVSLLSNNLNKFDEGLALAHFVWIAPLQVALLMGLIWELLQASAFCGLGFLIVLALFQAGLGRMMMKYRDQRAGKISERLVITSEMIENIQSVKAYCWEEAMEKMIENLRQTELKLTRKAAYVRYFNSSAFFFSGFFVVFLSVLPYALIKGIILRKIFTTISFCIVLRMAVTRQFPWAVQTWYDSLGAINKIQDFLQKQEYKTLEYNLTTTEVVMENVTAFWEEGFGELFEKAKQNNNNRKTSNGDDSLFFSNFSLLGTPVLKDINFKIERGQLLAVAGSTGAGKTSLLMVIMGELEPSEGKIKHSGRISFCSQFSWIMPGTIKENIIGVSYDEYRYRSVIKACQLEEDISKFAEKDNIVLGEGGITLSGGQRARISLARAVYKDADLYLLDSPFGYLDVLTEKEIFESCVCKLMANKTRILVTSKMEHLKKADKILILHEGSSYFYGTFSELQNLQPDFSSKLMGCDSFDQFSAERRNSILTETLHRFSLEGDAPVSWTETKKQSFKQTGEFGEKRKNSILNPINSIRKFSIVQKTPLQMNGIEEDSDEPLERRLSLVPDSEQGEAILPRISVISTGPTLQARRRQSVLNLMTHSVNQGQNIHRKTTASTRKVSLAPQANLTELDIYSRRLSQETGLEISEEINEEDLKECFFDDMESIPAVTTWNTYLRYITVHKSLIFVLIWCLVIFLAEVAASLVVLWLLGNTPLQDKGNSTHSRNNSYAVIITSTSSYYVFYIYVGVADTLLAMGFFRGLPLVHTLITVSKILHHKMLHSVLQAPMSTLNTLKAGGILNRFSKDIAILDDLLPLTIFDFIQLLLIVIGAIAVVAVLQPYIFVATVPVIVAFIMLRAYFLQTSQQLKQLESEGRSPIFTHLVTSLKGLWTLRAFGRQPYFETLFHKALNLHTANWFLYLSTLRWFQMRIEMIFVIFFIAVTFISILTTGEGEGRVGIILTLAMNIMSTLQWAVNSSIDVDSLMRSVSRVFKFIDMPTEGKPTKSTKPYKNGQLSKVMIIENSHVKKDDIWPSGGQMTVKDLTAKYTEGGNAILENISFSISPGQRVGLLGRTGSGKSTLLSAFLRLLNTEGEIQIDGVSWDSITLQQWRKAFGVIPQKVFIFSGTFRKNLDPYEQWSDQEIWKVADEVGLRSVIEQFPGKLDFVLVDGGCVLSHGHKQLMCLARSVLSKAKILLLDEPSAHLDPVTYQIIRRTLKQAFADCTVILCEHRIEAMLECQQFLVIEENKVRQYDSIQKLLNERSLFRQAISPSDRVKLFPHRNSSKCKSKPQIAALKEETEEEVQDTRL

Row | SMILES | EC50 | Emax | Emax (FRT F508del-CFTR) | fold decrease (drop) in potency with respect to 30 | activity on F508del-CFTR FRT cells (in words)
1 | COc1ccc2[nH]c3c(c2c1)CN(C(=O)c1cc2ccc(N(C)C)cc2[nH]1)CC3 [Compound 10, (8-Methoxy-1,3,4,5-tetrahydro-2H-pyrido[4,3-b]indol-2-yl)-(6-(dimethylamino)-1H-indol-2-yl)methanone] | 0.15 ± 0.02 µM | 0.91 ± 0.12 | 0.91 ± 0.12 | – | –
2 | O=C(c1cnn(-c2ccccc2)c1)N1CCc2[nH]c3ccccc3c2C1 [Compound 2, (1-Phenyl-1H-pyrazol-4-yl)-(1,3,4,5-tetrahydro-2H-pyrido[4,3-b]indol-2-yl)methanone] | 4.1 ± 1.3 µM | 0.79 ± 0.13 | – | – | –
3 | Cc1ccc(F)c2[nH]c3c(c12)CN(C(=O)c1cc(C(F)(F)F)[nH]n1)C(C)C3 (racemic) [Compound 33, (±)-(6-Fluoro-3,9-dimethyl-1,3,4,5-tetrahydro-2H-pyrido[4,3-b]indol-2-yl)-(5-(trifluoromethyl)-1H-pyrazol-3-yl)methanone] | 0.022 ± 0.011 µM | 0.95 ± 0.27 | – | – | –
4 | Cc1ccc(F)c2[nH]c3c(c12)CN(C(=O)c1cc(C(F)(F)F)[nH]n1)C(C)(C)C3 [Compound 34, (6-Fluoro-3,3,9-trimethyl-1,3,4,5-tetrahydro-2H-pyrido[4,3-b]indol-2-yl)-(5-(trifluoromethyl)-1H-pyrazol-3-yl)methanone] | 1.91 ± 0.26 µM | 0.79 ± 0.13 | 0.79 ± 0.13 | – | –
5 | Cc1ccc(F)c2[nH]c3c(c12)[C@H]1CC[C@@H](C3)N1C(=O)c1cc(C(F)(F)F)[nH]n1 (single isomer, unassigned) [Compound 36, (R)- or (S)-(4-Fluoro-1-methyl-5,6,7,8,9,10-hexahydro-7,10-epiminocyclohepta[b]indol-11-yl)(5-(trifluoromethyl)-1H-pyrazol-3-yl)methanone] | – | – | – | – | completely inactive
6 | Cc1ccc(F)c2[nH]c3c(c12)C1CCC(C3)N1C(=O)c1cc(C(F)(F)F)[nH]n1 (racemic) [Compound 35, (±)-(4-Fluoro-1-methyl-5,6,7,8,9,10-hexahydro-7,10-epiminocyclohepta[b]indol-11-yl)-(5-(trifluoromethyl)-1H-pyrazol-3-yl)methanone] | 1.3 ± 0.3 µM | 0.82 ± 0.07 | – | – | –
7 | COc1ccc2[nH]c3c(c2c1)CN(C(=O)c1cc(-c2ccccc2)[nH]n1)CC3 [Compound 7, (8-Methoxy-1,3,4,5-tetrahydro-2H-pyrido[4,3-b]indol-2-yl)-(5-phenyl-1H-pyrazol-3-yl)methanone] | 0.82 ± 0.17 µM | 0.84 ± 0.23 | 0.84 ± 0.23 | – | –
8 | Cc1ccc(F)c2[nH]c3c(c12)C(C)N(C(=O)c1cc(C(F)(F)F)[nH]n1)CC3 (single isomer, unassigned) [Compound 41, (R)- or (S)-(6-Fluoro-1,9-dimethyl-1,3,4,5-tetrahydro-2H-pyrido[4,3-b]indol-2-yl)-(5-(trifluoromethyl)-1H-pyrazol-3-yl)methanone] | 0.08 ± 0.02 µM | 1.0 ± 0.22 | – | – | –
9 | Cc1ccc(F)c2[nH]c3c(c12)C1CCC(C3)N1C(=O)c1cc(C(F)(F)F)[nH]n1 (single isomer, unassigned) [Compound 37, (S)- or (R)-(4-Fluoro-1-methyl-5,6,7,8,9,10-hexahydro-7,10-epiminocyclohepta[b]indol-11-yl)(5-(trifluoromethyl)-1H-pyrazol-3-yl)methanone] | 0.54 ± 0.04 µM | 0.95 ± 0.01 | – | – | retained some activity

Second part, led by results:

Row | EC50 | Emax | Emax (FRT F508del-CFTR) | fold decrease (drop) in potency with respect to 30 | SMILES | activity on F508del-CFTR FRT cells (in words)
10 | 0.2 ± 0.06 µM | 0.22 ± 0.04 | – | – | Cc1ccc2c3c([nH]c2c1)CCN(C(=O)c1cc(C(F)(F)F)[nH]n1)C3 [Compound 16, (7-Methyl-1,3,4,5-tetrahydro-2H-pyrido[4,3-b]indol-2-yl)-(5-(trifluoromethyl)-1H-pyrazol-3-yl)methanone] | –
11 | 1.14 ± 0.13 µM | 1.0 ± 0.08 | – | – | Cc1cccc2c3c([nH]c12)CCN(C(=O)c1cc(C(F)(F)F)[nH]n1)C3 [Compound 17, (6-Methyl-1,3,4,5-tetrahydro-2H-pyrido[4,3-b]indol-2-yl)-(5-(trifluoromethyl)-1H-pyrazol-3-yl)methanone] | –
12 | 1.9 ± 0.2 µM | 0.75 ± 0.11 | – | – | N#Cc1ccc2[nH]c3c(c2c1)CN(C(=O)c1cc(C(F)(F)F)[nH]n1)CC3 [Compound 23, 2-(5-(Trifluoromethyl)-1H-pyrazole-3-carbonyl)-2,3,4,5-tetrahydro-1H-pyrido[4,3-b]indole-8-carbonitrile] | –
13 | 10.6 ± 1.3 µM | 0.17 ± 0.03 | 0.17 ± 0.03 | – | COc1ccc2[nH]c3c(c2c1)CN(C(=O)c1cc[nH]n1)CC3 [Compound 4, (8-Methoxy-1,3,4,5-tetrahydropyrido[4,3-b]indol-2-yl)-(1H-pyrazol-3-yl)methanone] | –
14 | 2.8 ± 0.8 µM | 0.59 ± 0.14 | – | – | COc1ccc2[nH]c3c(c2c1)CN(C(=O)c1c[nH]c(C(F)(F)F)n1)CC3 [Compound 8, (8-Methoxy-1,3,4,5-tetrahydro-2H-pyrido[4,3-b]indol-2-yl)-(2-(trifluoromethyl)-1H-imidazol-4-yl)methanone] | –
15 | 0.94 ± 0.25 µM | 0.65 ± 0.08 | – | more than 15 fold | Cc1ccc(F)c2c3c([nH]c12)CCN(C(=O)c1cc(C(F)(F)F)[nH]n1)C3 [Compound 31, (9-Fluoro-6-methyl-1,3,4,5-tetrahydro-2H-pyrido[4,3-b]indol-2-yl)(5-(trifluoromethyl)-1H-pyrazol-3-yl)methanone] | –
16 | 2.1 ± 0.7 µM | 0.85 ± 0.06 | 0.85 ± 0.06 | – | COc1ccc2c(c1)c1c(n2C)CCN(C(=O)c2cc(C(F)(F)F)[nH]n2)C1 [Compound 12, (8-Methoxy-5-methyl-1,3,4,5-tetrahydro-2H-pyrido[4,3-b]indol-2-yl)-(5-(trifluoromethyl)-1H-pyrazol-3-yl)methanone] | –
17 | 0.48 ± 0.12 µM | 0.83 ± 0.09 | – | – | Cc1cccc2[nH]c3c(c12)CN(C(=O)c1cc(C(F)(F)F)[nH]n1)CC3 [Compound 15, (9-Methyl-1,3,4,5-tetrahydro-2H-pyrido[4,3-b]indol-2-yl)-(5-(trifluoromethyl)-1H-pyrazol-3-yl)methanone] | –
18 | 10.5 ± 2.2 µM | 0.28 ± 0.04 | – | – | CS(=O)(=O)c1ccc2[nH]c3c(c2c1)CN(C(=O)c1cc(C(F)(F)F)[nH]n1)CC3 [Compound 24, (8-(Methylsulfonyl)-1,3,4,5-tetrahydro-2H-pyrido[4,3-b]indol-2-yl)-(5-(trifluoromethyl)-1H-pyrazol-3-yl)methanone] | –
19 | 2.3 ± 0.3 µM | 0.93 ± 0.16 | – | 38 fold | Cc1ccc(F)c2[nH]c3c(c12)CCN(C(=O)c1cc(C(F)(F)F)[nH]n1)CC3 [Compound 38, (7-Fluoro-10-methyl-1,4,5,6-tetrahydroazepino[4,5-b]indol-3(2H)-yl)-(5-(trifluoromethyl)-1H-pyrazol-3-yl)methanone] | –
20 | 0.27 ± 0.09 µM | 0.95 ± 0.11 | – | – | Cc1ccc2[nH]c3c(c2c1)CN(C(=O)c1cc(C(F)(F)F)[nH]n1)CC3 [Compound 14, (8-Methyl-1,3,4,5-tetrahydro-2H-pyrido[4,3-b]indol-2-yl)-(5-(trifluoromethyl)-1H-pyrazol-3-yl)methanone] | –
